Measured values from article PMC7961996, “Small Immunomodulatory Molecules as Potential Therapeutics in Experimental Murine Models of Acute Lung Injury (ALI)/Acute Respiratory Distress Syndrome (ARDS)” (International Journal of Molecular Sciences, 2021).
“And” between values parts separate entries of the source, which are not always exact repeats. Equal entries are not always repeated. Where two headings read alike, the source gives them in different places.

Assay: Pharmacokinetic (toxicokinetic) study, plasma
Assay type: in vivo, Sprague Dawley rats
Details: for RAUC (RATIO): Day 3 AUC(0-t) / Day 1 AUC(0-t) / Cmax / Tmax / half-life / clearance / Vd / AUC(0-t): plasma; for Cmax / Tmax / half-life / clearance / Vd / AUC(0-t): Sprague Dawley, rat
Method: For the PK study of AVR-48 in rats, a formulation consisting of 10% DMSO, 20% tetraglycol, 20% PEG 400, and 50% sterile water was developed. Each preparation was made on the same day of dose administration. The components of the control/vehicle item formulation were added sequentially. Briefly, the appropriate volume of DMSO (10% of the final volume) was measured into a container followed by gradual addition of PEG 400 (20% of the final volume) and sterile water (50% of the final volume) to make up the volume and mixed thoroughly till completely dissolved. The final solution was filtered through a 0.22 µm membrane filter (Millipore Millex® GP PES, St. Louis, MO, USA) into a sterile vial. All PK studies were also conducted with 8–10-week-old male and female Sprague Dawley rats. An additional nine animals/sex/dose were used for PK analysis and blood (approximately 0.3 mL each) was collected from each rat on days 1 and 3 of the treatment period at time points of 5, 30, 60, 90, 120, and 180 min, and 6, 12 h, and 24 h post dose that were randomized to provide a total of three samples/sex for each time point. Samples were collected by jugular venipuncture and the samples were collected into tubes containing the anticoagulant, K3EDTA. The collection of BALF was limited to the terminal time points of 6 h, 12 h, and 24 h. AVR-48 concentrations in the blood and BALF were determined using LC/MS/MS analysis developed in house. PK parameters were estimated using Phoenix pharmacokinetic software (Certara, Princeton, NJ, USA) using a non-compartmental approach consistent with the IV bolus injection.

In the case of `CC(=O)N[C@H]1[C@H](Oc2ccc([N+](=O)[O-])cc2)O[C@H](CO)[C@@H](O)[C@@H]1O` [AVR-48, N-((2S,3R,4R,5S,6R)-4,5-dihydroxy-6-(hydroxymethyl)-2-(4-nitrophenoxy)tetrahydro-2H-pyran-3-yl) acetamide], the “RAUC (RATIO): Day 3 AUC(0-t) / Day 1 AUC(0-t)” value (40 mg/kg IV, Female) is reported as 0.679, the “RAUC (RATIO): Day 3 AUC(0-t) / Day 1 AUC(0-t)” value (40 mg/kg IV, Male) is reported as 0.928 and the “RAUC (RATIO): Day 3 AUC(0-t) / Day 1 AUC(0-t)” value (80 mg/kg IV, Female) is reported as 0.953. The “RAUC (RATIO): Day 3 AUC(0-t) / Day 1 AUC(0-t)” value (80 mg/kg IV, Male) was 0.777, the Cmax (iv, 40 mg/kg, 40 mg/kg dose IV, read-out: Cmax) was 364 ± 9.36 µM and the Cmax (iv, 80 mg/kg, 80 mg/kg dose IV, read-out: Cmax) was 749.3 ± 5.25 µM. It also gave a Cmax (other: IV or IP, 10 mg/kg, single IV or IP 10 mg/kg dose, extrapolated from Cmax at 40 mg/kg, read-out: Cmax in plasma expected for 10 mg/kg) of roughly 91 µM, a Tmax (Day 1, 40 mg/kg IV, Female) of 5 min and a Tmax (Day 1, 80 mg/kg IV, Female) of 5 min. The Tmax (Day 1, 80 mg/kg IV, Male) was 5 min, the Tmax (Day 3, 40 mg/kg IV, Male) was 5 min and the “AUC(0-t) dose dependence” value (between 40 and 80 mg/kg/day dose groups) was “increased in a dose-dependent manner”. The half-life (both sexes, intravenous, 80 mg/kg, both doses (40 and 80 mg/kg), read-out: half-life (T1/2)) was 1.4 to 2.34 h, the clearance (both sexes, intravenous, day 1 and day 3 of dosing, read-out: clearance (CL)) was 12.4 to 18.3 mL/min/kg and the Vd (both sexes, intravenous, day 1 and day 3 of dosing, read-out: volume of distribution (Vd)) was 1.51 to 3.72 L/kg. For the same compound, the AUC(0-t) (female, iv, 40 mg/kg, Day 1, 40 mg/kg IV, Female) was 53900 ± 2860 ng·h/mL, the clearance (female, iv, 40 mg/kg, Day 1, 40 mg/kg IV, Female, read-out: Cl (converted)) was 12.4 mL/min/kg and the Cmax (female, iv, 40 mg/kg, Day 1, 40 mg/kg IV, Female, read-out: Cmax ± SE) was 129000 ng/mL and 377 µM. It also gave a half-life (female, iv, 40 mg/kg, Day 1, 40 mg/kg IV, Female, read-out: T1/2 (converted)) of 1.4 h, a Vd (female, iv, 40 mg/kg, Day 1, 40 mg/kg IV, Female, read-out: Vd) of 1.51 L/kg and an AUC(0-t) (female, iv, 40 mg/kg, Day 3, 40 mg/kg IV, Female) of 36600 ng·h/mL. For the same compound, the clearance (female, iv, 40 mg/kg, Day 3, 40 mg/kg IV, Female, read-out: Cl (converted)) was 18.3 mL/min/kg, the Cmax (female, iv, 40 mg/kg, Day 3, 40 mg/kg IV, Female, read-out: Cmax ± SE) was 90400 ng/mL and 264 µM and the half-life (female, iv, 40 mg/kg, Day 3, 40 mg/kg IV, Female, read-out: T1/2 (converted)) was 2.34 h. For the same compound, the Vd (female, iv, 40 mg/kg, Day 3, 40 mg/kg IV, Female, read-out: Vd) was 3.72 L/kg, the AUC(0-t) (female, iv, 80 mg/kg, Day 1, 80 mg/kg IV, Female) was 101000 ng·h/mL and the clearance (female, iv, 80 mg/kg, Day 1, 80 mg/kg IV, Female, read-out: Cl (converted)) was 13.4 mL/min/kg. The Cmax (female, iv, 80 mg/kg, Day 1, 80 mg/kg IV, Female, read-out: Cmax ± SE) was 237000 ng/mL and 692 µM, the half-life (female, iv, 80 mg/kg, Day 1, 80 mg/kg IV, Female, read-out: T1/2 (converted)) was 1.45 h and the Vd (female, iv, 80 mg/kg, Day 1, 80 mg/kg IV, Female, read-out: Vd) was 1.68 L/kg. For the same compound, the AUC(0-t) (female, iv, 80 mg/kg, Day 3, 80 mg/kg IV, Female) was 95800 ng·h/mL, the clearance (female, iv, 80 mg/kg, Day 3, 80 mg/kg IV, Female, read-out: Cl (converted)) was 14 mL/min/kg and the Cmax (female, iv, 80 mg/kg, Day 3, 80 mg/kg IV, Female, read-out: Cmax ± SE) was 227000 ng/mL and 663 µM. It also gave a half-life (female, iv, 80 mg/kg, Day 3, 80 mg/kg IV, Female, read-out: T1/2 (converted)) of 2.05 h, a Vd (female, iv, 80 mg/kg, Day 3, 80 mg/kg IV, Female, read-out: Vd) of 2.48 L/kg and an AUC(0-t) (male, iv, 40 mg/kg, Day 1, 40 mg/kg IV, Male) of 49800 ± 962 ng·h/mL. The clearance (male, iv, 40 mg/kg, Day 1, 40 mg/kg IV, Male, read-out: Cl (converted)) was 13.4 mL/min/kg, the Cmax (male, iv, 40 mg/kg, Day 1, 40 mg/kg IV, Male, read-out: Cmax ± SE) was 351 µM and 120000 ng/mL and the half-life (male, iv, 40 mg/kg, Day 1, 40 mg/kg IV, Male, read-out: T1/2 (converted)) was 1.64 h. The Vd (male, iv, 40 mg/kg, Day 1, 40 mg/kg IV, Male, read-out: Vd) was 1.91 L/kg, the AUC(0-t) (male, iv, 40 mg/kg, Day 3, 40 mg/kg IV, Male) was 46200 ng·h/mL and the clearance (male, iv, 40 mg/kg, Day 3, 40 mg/kg IV, Male, read-out: Cl (converted)) was 14.5 mL/min/kg. For the same compound, the Cmax (male, iv, 40 mg/kg, Day 3, 40 mg/kg IV, Male, read-out: Cmax ± SE) was 115000 ng/mL and 336 µM, the half-life (male, iv, 40 mg/kg, Day 3, 40 mg/kg IV, Male, read-out: T1/2 (converted)) was 2.16 h and the Vd (male, iv, 40 mg/kg, Day 3, 40 mg/kg IV, Male, read-out: Vd) was 2.71 L/kg. For the same compound, the AUC(0-t) (male, iv, 80 mg/kg, Day 1, 80 mg/kg IV, Male) was 118000 ng·h/mL, the clearance (male, iv, 80 mg/kg, Day 1, 80 mg/kg IV, Male, read-out: Cl (converted)) was 11.3 mL/min/kg and the Cmax (male, iv, 80 mg/kg, Day 1, 80 mg/kg IV, Male, read-out: Cmax ± SE) was 276000 ng/mL and 806 µM. For the same compound, the half-life (male, iv, 80 mg/kg, Day 1, 80 mg/kg IV, Male, read-out: T1/2 (converted)) was 2.05 h, the Vd (male, iv, 80 mg/kg, Day 1, 80 mg/kg IV, Male, read-out: Vd) was 2.02 L/kg and the AUC(0-t) (male, iv, 80 mg/kg, Day 3, 80 mg/kg IV, Male) was 91500 ng·h/mL. The clearance (male, iv, 80 mg/kg, Day 3, 80 mg/kg IV, Male, read-out: Cl (converted)) was 14.7 mL/min/kg, the Cmax (male, iv, 80 mg/kg, Day 3, 80 mg/kg IV, Male, read-out: Cmax ± SE) was 190000 ng/mL and 555 µM and the half-life (male, iv, 80 mg/kg, Day 3, 80 mg/kg IV, Male, read-out: T1/2 (converted)) was 1.42 h. The Vd (male, iv, 80 mg/kg, Day 3, 80 mg/kg IV, Male, read-out: Vd) was 1.8 L/kg and the accumulation (three days of twice daily administration) was “no accumulation”.
